Assay results: patent publication US6005007A, “Retinoids, methods for their production and use” (priority 1997, dated 1999)

Legend:
RARγ = target: T1, RARγ (Homo sapiens, UniProt P13631); experiment: Co-transfection assay, RARγ agonist activity; assay type: cell-based; set-up: expressed in transfected cells; host or cells: CV-1 (African green monkey kidney fibroblasts); settings: CV-1 cells, luciferase reporter, read-out: RARγ Pot
T1 sequence (P13631 1-454): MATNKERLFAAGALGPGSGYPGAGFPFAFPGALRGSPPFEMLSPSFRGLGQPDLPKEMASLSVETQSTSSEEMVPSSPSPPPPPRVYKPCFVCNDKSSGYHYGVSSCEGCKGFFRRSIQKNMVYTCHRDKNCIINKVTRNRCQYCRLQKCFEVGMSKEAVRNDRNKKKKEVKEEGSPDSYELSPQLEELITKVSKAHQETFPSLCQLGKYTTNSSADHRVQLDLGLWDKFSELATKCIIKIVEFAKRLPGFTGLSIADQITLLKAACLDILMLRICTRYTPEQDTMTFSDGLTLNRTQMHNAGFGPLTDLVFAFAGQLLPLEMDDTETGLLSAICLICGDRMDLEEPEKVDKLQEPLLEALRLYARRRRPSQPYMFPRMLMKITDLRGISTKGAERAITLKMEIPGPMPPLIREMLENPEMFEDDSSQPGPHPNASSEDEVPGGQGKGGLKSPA

RXRβ = target: T2, RXRβ (Mus musculus, UniProt P28704); experiment: Co-transfection assay, RXRβ agonist activity; assay type: cell-based; settings: CV-1 cells, luciferase reporter, read-out: RXRβ Pot
T2 sequence (P28704 1-520): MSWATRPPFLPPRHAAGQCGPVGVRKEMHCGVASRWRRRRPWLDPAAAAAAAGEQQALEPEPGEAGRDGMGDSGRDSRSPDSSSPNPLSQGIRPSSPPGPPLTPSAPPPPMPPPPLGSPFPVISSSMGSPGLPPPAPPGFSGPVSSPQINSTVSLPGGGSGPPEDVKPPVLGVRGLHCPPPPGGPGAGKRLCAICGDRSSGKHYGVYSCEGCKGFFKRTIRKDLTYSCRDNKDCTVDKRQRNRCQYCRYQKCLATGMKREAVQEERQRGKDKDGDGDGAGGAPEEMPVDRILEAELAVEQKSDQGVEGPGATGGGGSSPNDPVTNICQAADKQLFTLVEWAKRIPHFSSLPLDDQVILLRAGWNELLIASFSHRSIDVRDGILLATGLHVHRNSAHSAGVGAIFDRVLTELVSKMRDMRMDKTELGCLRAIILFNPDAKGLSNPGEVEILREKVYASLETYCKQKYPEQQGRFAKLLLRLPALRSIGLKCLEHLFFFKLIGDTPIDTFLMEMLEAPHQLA

RXRα = target: T3, RXRα (Homo sapiens, UniProt P19793); experiment: Receptor binding, RXRα; settings: tritiated retinoid competition
T3 sequence (P19793 1-462): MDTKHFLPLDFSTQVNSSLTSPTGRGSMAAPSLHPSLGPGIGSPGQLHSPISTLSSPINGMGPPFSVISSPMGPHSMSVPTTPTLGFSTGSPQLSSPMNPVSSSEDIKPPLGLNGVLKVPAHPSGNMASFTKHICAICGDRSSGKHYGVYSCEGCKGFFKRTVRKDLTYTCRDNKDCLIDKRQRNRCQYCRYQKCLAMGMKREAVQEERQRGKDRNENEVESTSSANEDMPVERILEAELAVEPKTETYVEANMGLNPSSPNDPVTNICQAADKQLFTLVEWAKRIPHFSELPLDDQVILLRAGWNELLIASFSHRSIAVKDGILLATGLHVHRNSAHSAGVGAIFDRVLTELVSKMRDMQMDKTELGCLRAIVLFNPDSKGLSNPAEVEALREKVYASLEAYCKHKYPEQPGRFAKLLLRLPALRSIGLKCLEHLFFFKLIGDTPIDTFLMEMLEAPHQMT

RAR receptors = experiment: Co-transfection assay, RAR subfamily (summary in words); assay type: cell-based; settings: CV-1 cells
Method: Utilizing the "cis-trans" or "co-transfection" assay described by Evans et al., Science, 240:889-95 (May 13, 1988), the disclosure of which is herein incorporated by reference, the retinoid compounds of the present invention were tested and found to have strong, specific activity as either selective RXR agonists, or as pan-agonist activators of both RAR and RXR receptors. This assay is described in further detail in U.S. Pat. Nos. 4,981,784 and 5,071,773, the disclosures of which are incorporated herein by reference.
In the co-transfection assay, a cloned cDNA for an IR (e.g., human RARα, RARβ, RXRγ) under the control of a constitutive promoter (e.g., the SV 40 promoter) is introduced by transfection (a procedure to induce cells to take up foreign genes) into a background cell substantially devoid of endogenous IRs. This introduced gene directs the recipient cells to make the IR protein of interest. A second gene is also introduced (co-transfected) into the same cells in conjunction with the IR gene. […]
The co-transfection assay can detect small molecule agonists or antagonists of target IRs. […] This activity can be conveniently measured, e.g., by increasing luciferase production, which reflects compound-dependent, IR-mediated increases in reporter transcription. […]

SMILES | EC50 (RARγ) | EC50 (RXRβ) | Kd (RXRα) | activity for the RAR receptors (RAR receptors)
CC(/C=C/CC1(c2ccc3c(c2)C(C)(C)CCC3(C)C)CC1)=C\C(=O)O [Compound 101, (2E, 4E)-6-[1-(5,5,8,8-Tetramethyl-5,6,7,8-tetrahydronaphtha-len-2-yl)cyclopropanyl]-3-methyl hexadienoic acid] | 24 nM | 6 nM | 2 nM | –
CC(/C=C/CC1(c2cc(C(C)(C)C)cc3c2CCC3(C)C)CC1)=C\C(=O)O [Compound 107, (2E, 4E)-6-[1-(6-t-butyl-1,1-dimethyl-indan-4-yl)-cyclopropyl]-3-methyl hexadienoic acid] | > 10000 nM | 22 nM | 6 nM | no activity at all
CC(/C=C/CC1(c2ccc3c(c2)C(C)(C)CCC3(C)C)CCCC1)=C\C(=O)O [Compound 108, (2E, 4E)-6-[(5,5,8,8-Tetramethyl-5,6,7,8-tetrahydronaphtha-len-2-yl)cyclopentane-1-yl]-3-methyl hexadienoic acid] | > 10000 nM | – | 41 nM | no activity at all
